From article PMC7988496, “Sphingomyelin synthase-related protein generates diacylglycerol via the hydrolysis of glycerophospholipids in the absence of ceramide” (The Journal of Biological Chemistry, 2021)

Columns and labels:
[1] = molecular target: T1, SMSr-V5 (Homo sapiens, UniProt Q96LT4); assay: anti-V5 immunoprecipitate, […]:1-DG quantified by LC-MS/MS; format: biochemical
T1 construct: gene SAMD8
T1 sequence (Q96LT4 1-415): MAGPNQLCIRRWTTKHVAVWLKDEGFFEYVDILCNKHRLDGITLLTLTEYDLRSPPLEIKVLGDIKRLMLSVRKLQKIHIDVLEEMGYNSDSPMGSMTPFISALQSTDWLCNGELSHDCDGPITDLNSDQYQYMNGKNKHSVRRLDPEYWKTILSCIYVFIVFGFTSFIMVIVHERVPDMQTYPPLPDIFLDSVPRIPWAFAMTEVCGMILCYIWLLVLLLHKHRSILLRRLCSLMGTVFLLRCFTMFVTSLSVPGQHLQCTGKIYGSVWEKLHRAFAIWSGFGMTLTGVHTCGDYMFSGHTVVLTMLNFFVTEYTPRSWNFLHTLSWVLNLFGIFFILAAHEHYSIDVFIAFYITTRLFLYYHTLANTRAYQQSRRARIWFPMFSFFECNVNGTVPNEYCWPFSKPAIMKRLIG

[2] = substrate: CCCCCCCC/C=C\CCCCCCCC(=O)O[C@H](COC(=O)CCCCCCCCCCCCCCC)COP(=O)(O)O; assay: DDM/CHS mixed micellar assay, DG quantified by LC-MS/MS; format: biochemical, Homo sapiens; conditions: PAP activity, no ceramide, pH 7.4, 37 °C, 2 h, 0.1% DDM, 0.02% CHS, surface-dilution Km also printed as 3.92 ± 0.536 mol%
From the text: DDM/CHS mixed micellar assay, DG quantified by LC-MS/MS on 6× His-SMSr-ΔSAMD

## CCCCCCCC/C=C\CCCCCCCC(=O)O[C@H](COC(=O)CCCCCCCCCCCCCCC)COP(=O)(O)O[C@@H]1[C@H](O)[C@H](O)[C@@H](O)[C@H](O)[C@H]1O [16:0/18:1-PI, 1-palmitoyl-2-oleoyl-sn-glycero-3-phosphoinositol]
[1]; PI-PLC activity
  anti-V5 immunoprecipitate, 16:0/18:1-DG quantified by LC-MS/MS: The SMSr expressed in the COS-7 cells exhibited PAP and PI-PLC activities

## CCCCCCCC/C=C\CCCCCCCC(=O)O[C@H](COC(=O)CCCCCCCCCCCCCCC)COP(=O)(O)O [16:0/18:1-PA, 1-palmitoyl-2-oleoyl (16:0/18:1)-PA]
[1]; PAP activity
  anti-V5 immunoprecipitate, 16:0/18:1-DG quantified by LC-MS/MS: The SMSr expressed in the COS-7 cells exhibited PAP and PI-PLC activities

B1: 6× His-SMSr-ΔSAMD (Homo sapiens) (protein)
chain: HIDVLEEMGYNSDSPMGSMTPFISALQSTDWLCNGELSHDCDGPITDLNSDQYQYMNGKNKHSVRRLDPEYWKTILSCIYVFIVFGFTSFIMVIVHERVPDMQTYPPLPDIFLDSVPRIPWAFAMTEVCGMILCYIWLLVLLLHKHRSILLRRLCSLMGTVFLLRCFTMFVTSLSVPGQHLQCTGKIYGSVWEKLHRAFAIWSGFGMTLTGVHTCGDYMFSGHTVVLTMLNFFVTEYTPRSWNFLHTLSWVLNLFGIFFILAAHEHYSIDVFIAFYITTRLFLYYHTLANTRAYQQSRRARIWFPMFSFFECNVNGTVPNEYCWPFSKPAIMKRL
[2]
  Km: 97.4 ± 13.3 µM
